Laboratory results published in patent US11130780B2, “Inhibitors of growth factor activation enzymes” (Washington University, priority 2015, dated 2021).
pKi: −log10 of the molar value. Like-named read-outs stand apart in the source and are kept apart here. Each block holds one molecule with its values, some of them ahead of it.

How the values were obtained:
Format in all cases: biochemical
hepsin = target: T1, hepsin (Homo sapiens, UniProt P05981); test: Fluorescent kinetic enzyme inhibitor assay of hepsin; conditions: Fluorogenic Assay, read-out: Hepsin Ki
T1 construct: purchased R&D Systems 4776-SE-010
T1 sequence (P05981 163-417 limits assumed): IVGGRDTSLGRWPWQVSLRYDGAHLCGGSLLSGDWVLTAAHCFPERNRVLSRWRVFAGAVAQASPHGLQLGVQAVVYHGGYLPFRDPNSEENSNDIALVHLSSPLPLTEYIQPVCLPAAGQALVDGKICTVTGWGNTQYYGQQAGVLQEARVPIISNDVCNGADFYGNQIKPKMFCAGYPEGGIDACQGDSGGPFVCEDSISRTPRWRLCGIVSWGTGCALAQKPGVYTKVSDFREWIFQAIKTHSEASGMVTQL
T1 sequence (P05981 45-162 partner limits assumed): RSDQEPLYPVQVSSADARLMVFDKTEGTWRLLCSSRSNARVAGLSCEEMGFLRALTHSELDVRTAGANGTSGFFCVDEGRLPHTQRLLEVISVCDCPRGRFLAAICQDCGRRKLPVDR
Procedure: (§1) Inhibitors (11-pt serial dilutions, 0-20 μM final concentration in reaction) were serially diluted in DMSO (2% DMSO final concentration) and then mixed with either recombinant serine protease domain of HGFA [Z. Han, P. K. Harris, D. E. Jones, R. Chugani, T. Kim, M. Agarwal, W. Shen, S. A. Wildman, J. W. Janetka, Acs Med Chem Lett 2014, 5, 1219-1224], matriptase (Charles Craik, UCSF) or hepsin* (#4776-SE-010, R&D Systems, Minneapolis, Minn.) in black 384 well plates (Corning #3575. Corning, N.Y.). […] The final substrate concentrations for all assays were at the Km for the respective enzymes. Changes in fluorescence (excitation at 380 nm and emission at 460 nm) were measured at room temperature over time in a Biotek Synergy 2 plate reader (Winnoski, Vt.). Using GraphPad Prism version 6.04 software program, (GraphPad Software, San Diego, Calif., www.graphpad.com), a four parameter curve fit was used to determine the inhibitor IC50s from a plot of the mean reaction velocity versus the inhibitor concentration. The IC50 values represent the average of three separate experimental determinations.

HGFA = target: T2, HGFA (Homo sapiens, UniProt Q04756); test: Fluorescent kinetic enzyme inhibitor assay of HGFA; conditions: read-out: HGFA Ki
T2 construct: His6 tag (N); seven amino acid spacer and seven amino acid TEV cleavage site (N); Honey Bee melittin signal peptide (N); made in house; host or cells: High 5 insect cells (baculovirus; virus raised in Sf9)
T2 sequence (Q04756 373-655): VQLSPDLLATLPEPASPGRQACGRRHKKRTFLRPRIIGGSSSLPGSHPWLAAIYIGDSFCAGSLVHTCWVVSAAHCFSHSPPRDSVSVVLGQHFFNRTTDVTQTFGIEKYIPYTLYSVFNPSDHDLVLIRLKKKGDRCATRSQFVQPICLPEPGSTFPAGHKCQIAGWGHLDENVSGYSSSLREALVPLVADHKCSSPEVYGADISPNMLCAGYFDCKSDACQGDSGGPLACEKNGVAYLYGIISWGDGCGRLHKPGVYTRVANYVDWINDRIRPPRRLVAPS
Source text: Using primers identified as SEQ ID NO 1, SEQ ID NO 2, and standard PCR protocols, the nucleotide sequence encoding amino acids 373-655 of HGFA was synthesized. This PCR product was cloned into the SfoI-HindIII sites of a modified pFastBac HT baculovirus expression vector (Addgene, Cambridge, Mass.). This vector contains a six amino His tag followed by a seven amino spacer and a seven amino acid TEV cleavage site placed immediately downstream of the Honey Bee melittin signal peptide. Using a modified Bac to Bac Expression System (Life Technologies, Carlsbad, Calif.), recombinant HGFA bacmids were obtained by transforming DH10Bac Escherichia coli cells. To obtain HGFA containing baculovirus, purified bacmids were transfected into Sf9 insect cells. After 5 days in culture at 27° C., media was harvested from transfected Sf9 cells. This media was used to prepare baculovirus infected insect cells (BIICs). These BIIICs were used to infect High 5 insect cells. Four days post infection, media was harvested and recombinant protein prepared as follows. Media was chilled to 4° C. and spun at 4000×g for 20 minutes (all subsequent steps were performed at 4° C. unless noted). Clarified media was passed first through a Whatman GF/B 1 um (#1821-047, GE Healthcare Life Sciences, Piscataway, N.J.) and then a 0.22 um PES membrane (#99955, TPP Techno Plastic Products AG, Trasadingen, Switzerland) and then concentrated using a Pall Centramate tangential flow system and Centramate T-series Cassette (#OS010T12, Pall Corporation, Port Washington, N.Y.). Concentrated media was then buffer exchanged in two steps, five volumes of 50 mM Na-phosphate, 500 mM NaCl, pH 6.2, followed by five volumes of 50 mM Na-phosphate, 500 mM NaCl, pH 7.5. The concentrated and buffered exchanged insect cell media was again filtered as above and made 25 mM imidazole (#1202, Sigma-Aldrich, St. Louis, Mo.) and was mixed with nickel agarose beads (#H-321-25, Gold Biotechnology, Inc., St. Louis Mo.). After mixing this slurry for 12 hours, nickel agarose beads were allowed to settle by gravity and then loaded into a column. Beads were washed with buffer (25 mM Na-phosphate, 500 mM NaCl, 25 mM imidazole, pH 8) and the bound protein eluted using (25 mM Na-phosphate, 500 mM NaCl, 250 mM imidazole, pH 8). Using a Amicon Ultra-4 Centrifugal filters (#UFC801008, Merck Millipore, Ltd., Tullagreen, Ireland), peak protein fractions were concentrated and run over a Superdex-200 10/300 GL column (GE Healthcare Life Sciences, Piscataway, N.J.) in 10 mM Tris, 200 mM NaCl, 0.2 mM EDTA, pH 8. HGFA containing fractions were pooled, concentrated, made 50% glycerol, and stored at minus 20° C. Protein was quantitated using a modified Lowry protein assay (#500-0006, Bio-Rad Laboratories, Hercules, Calif.).
as §1

matriptase = target: T3, matriptase (Homo sapiens, UniProt Q9Y5Y6); test: Fluorescent kinetic enzyme inhibitor assay of matriptase; conditions: Fluorogenic Assay
T3 construct: Charles Craik, UCSF (obtained from another laboratory)
T3 sequence (Q9Y5Y6 615-855 limits assumed): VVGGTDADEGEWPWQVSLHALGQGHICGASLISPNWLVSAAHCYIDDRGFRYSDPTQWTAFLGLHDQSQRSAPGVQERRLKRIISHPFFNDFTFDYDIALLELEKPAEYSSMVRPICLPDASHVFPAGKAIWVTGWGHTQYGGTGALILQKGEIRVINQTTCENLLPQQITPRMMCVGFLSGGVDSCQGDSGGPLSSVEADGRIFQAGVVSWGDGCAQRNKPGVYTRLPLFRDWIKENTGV
Procedure: as §1

thrombin = thrombin (Homo sapiens, UniProt P00734); test: Chromogenic kinetic enzyme assay of thrombin; conditions: for pKi: read-out: Thrombin Ki
Procedure: Inhibitors (11-pt serial dilutions, 0-20 μM final concentration) were serially diluted in DMSO (2% DMSO final concentration) and then mixed with recombinant thrombin (0.15 nM final concentration) or Factor Xa (0.35 nM final concentration) in TNC buffer (25 mM Tris, 150 mM NaCl, 5 mM CaCl2, 0.01% TRITON X-100, pH 8) using clear 384 well plates. […] Changes in absorbance at 405 nm were measured over time in a Biotek Synergy 2 plate (Winnoski, Vt.). Using GraphPad Prism version 6.04 software program, (GraphPad Software, San Diego, Calif., www.graphpad.com), a four parameter curve fit was used to determine the inhibitor IC50s from a plot of the mean reaction velocity versus the inhibitor concentration. Ki values were calculated from the IC50 values using the Cheng and Prusoff equation (Ki=IC50/(1+[S]/Km).

SMILES: N=C(N)c1cccc(C[C@H](NS(=O)(=O)c2ccc3ccccc3c2)C(=O)N2CCN(c3ccccc3)CC2)c1 [Compound 25g, (S)-3-(2-(Naphthalene-2-sulfonamido)-3-oxo-3-(4-phenylpiperazin-1-yl)propyl)benzimidamide]
pKi (hepsin; Table 9.1): 5.15
pKi (HGFA): 4.74
pKi (matriptase; Table 9.1): 5.74

SMILES: CC(C)c1cc(C(C)C)c(S(=O)(=O)N[C@@H](Cc2cccc(C(=N)N)c2)C(=O)N2CCN(c3ccccc3)CC2)c(C(C)C)c1 [Compound 27, (S)-3-(3-Oxo-3-(4-phenylpiperazin-1-yl)-2-((2,4,6-triisopropylphenyl)sulfonamido)propyl)benzimidamide]
pKi (hepsin; Table 9.1): 5.13
pKi (HGFA): 4.65
pKi (matriptase; Table 9.1): 6.12

SMILES: CC(=O)N[C@@H](CCCCN)C(=O)N[C@@H](CCCNC(=N)N)C(=O)N[C@@H](CC(C)C)C(=O)N[C@@H](CCCNC(=N)N)C(=O)c1nc2ccc(C(=O)NCc3ccc(C(=O)O)cc3)cc2s1 [Compound 7164, Ac-KRLR(SEQ ID NO: 8)-kbt-Benzyl-3-COOH]
pKi (thrombin; Table 6.2, headed Fluorogenic Assay): 5.79

SMILES: Cc1nc(-c2cccc(C[C@H](NS(=O)(=O)c3ccc4ccccc4c3)C(=O)N3CCN(C(=O)NCc4ccccc4)CC3)c2)no1 [FMF-1-254-004]
pKi (hepsin; Table 9.3): < 5.00
pKi (HGFA; Table 9.3, Fluorogenic Assay): < 4.30
pKi (matriptase; Table 9.3): < 5.00

SMILES: CC(C)c1cc(C(C)C)c(S(=O)(=O)N[C@@H](Cc2cccc(C(=N)N)c2)C(=O)N2CCN(C(=O)C3CCN(C(=N)N)CC3)CC2)c(C(C)C)c1 [JWJ-I-135]
pKi (HGFA; Table 9.1, Fluorogenic Assay): 4.75
pKi (thrombin; Table 9.4): < 5.70

Further lines, results first:

pKi (hepsin; Table 9.1): 5.32
pKi (HGFA; Table 9.1, Fluorogenic Assay): 4.70
pKi (matriptase; Table 9.1): 6.24
SMILES: Cc1ccc(S(=O)(=O)N[C@@H](Cc2cccc(C(=N)N)c2)C(=O)N2CCC(c3ccccc3)CC2)cc1 [Compound 25b, (S)-3-(2-(4-Methylphenylsulfonamido)-3-oxo-3-(4-phenylpiperidin-1-yl)propyl)benzimidamide]

pKi (hepsin; Table 9.2): 6.17
pKi (HGFA; Table 9.2, Fluorogenic Assay): < 4.30
pKi (matriptase; Table 9.2): 5.89
SMILES: Cc1ccc(S(=O)(=O)N[C@@H](Cc2cccc(C(=N)N)c2)C(=O)N2CCCC(C(=O)NCCc3ccccc3)C2)cc1 (stereo partly drawn) [Compound 25c, 1-((S)-3-(3-Carbamimidoylphenyl)-2-(4-methylphenylsulfonamido)propanoyl)-N-phenethylpiperidine-3-carboxamide]

pKi (hepsin; Table 9.1): 5.89
pKi (HGFA; Table 9.1, Fluorogenic Assay): < 4.30
pKi (matriptase; Table 9.1): 4.83
pKi (matriptase; Table 9.1, listed as FMF-1-278-003): 4.83
SMILES: CCCCCCNC(=O)N1CCN(C(=O)[C@H](Cc2cccc(C(=N)N)c2)NS(=O)(=O)c2ccc3ccccc3c2)CC1 [Compound 25d, (S)-4-(3-(3-Carbamimidoylphenyl)-2-(naphthalene-2-sulfonamido)propanoyl)-N-hexylpiperazine-1-carboxamide]

pKi (hepsin; Table 9.1): 5.43
pKi (HGFA; Table 9.1, Fluorogenic Assay): < 4.30
pKi (matriptase; Table 9.1): 5.92
SMILES: N=C(N)c1cccc(C[C@H](NS(=O)(=O)c2ccc3ccccc3c2)C(=O)N2CCN(C(=O)c3csc4ccccc34)CC2)c1 [Compound 25e, (S)-3-(3-(4-(Benzo[b]thiophene-3-carbonyl)piperazin-1-yl)-2-(naphthalene-2-sulfonamido)-3-oxopropyl)benzimidamide]

pKi (hepsin; Table 9.2): 5.55
pKi (HGFA; Table 9.2, Fluorogenic Assay): < 4.30
pKi (matriptase; Table 9.2): 5.31
SMILES: N=C(N)c1cccc(C[C@H](NS(=O)(=O)c2ccc3ccccc3c2)C(=O)N2CCC[C@@H](NC(=O)OCc3ccccc3)C2)c1 [Compound 25f, Benzyl (R)-1-((S)-3-(3-carbamimidoylphenyl)-2-(naphthalene-2-sulfonamido)propanoyl)piperidin-3-ylcarbamate]

Km (thrombin; read-out: Km of chromogenic substrate for thrombin): 14.5 µM
SMILES: N=C(N)NCCC[C@H](NC(=O)[C@@H]1CCCCN1C(=O)[C@H](N)Cc1ccccc1)C(=O)Nc1ccc([N+](=O)[O-])cc1 [Compound S2238, D-Phe-Pip-Arg-pNA, reference compound]
